From US20260200919A1, “SUBSTITUTED AMINOPYRIDINE COMPOUNDS AND METHODS OF TREATING DISEASE USING SAME” (Atavistik Bio, Inc., priority 2023, published 2026)

How the values were obtained:
[1] = molecular target: T1, human recombinant kinase full-length wildtype AKT1 (Homo sapiens, UniProt P31749); assay: AKT1 kinase assay (wildtype, TR-FRET, Lance); assay type: biochemical; conditions: 0.6 nM wildtype AKT1, 50 nM Ulight-CREBtide, either 50 μM ATP or 2 mM ATP (not specified which), 60 min at RT
T1 construct: Purified human recombinant kinase full-length wildtype AKT1 was expressed in insect cells; made in house; host or cells: insect cells
T1 sequence (P31749 whole entry): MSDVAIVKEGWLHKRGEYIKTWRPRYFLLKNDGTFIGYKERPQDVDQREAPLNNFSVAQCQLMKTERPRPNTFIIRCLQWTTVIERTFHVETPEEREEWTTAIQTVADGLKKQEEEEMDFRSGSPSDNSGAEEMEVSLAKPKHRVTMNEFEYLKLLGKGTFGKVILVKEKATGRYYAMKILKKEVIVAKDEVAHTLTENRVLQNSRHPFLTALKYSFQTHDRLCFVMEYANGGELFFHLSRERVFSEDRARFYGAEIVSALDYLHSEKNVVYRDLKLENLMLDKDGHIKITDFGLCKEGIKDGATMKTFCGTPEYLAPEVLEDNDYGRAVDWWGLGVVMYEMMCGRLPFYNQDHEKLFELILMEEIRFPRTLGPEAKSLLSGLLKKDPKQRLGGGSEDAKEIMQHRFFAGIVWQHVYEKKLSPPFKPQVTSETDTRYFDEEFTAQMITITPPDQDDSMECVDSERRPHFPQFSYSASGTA
Experimental: AKT1 kinase assay: Inhibitory effects of compounds on wildtype AKT1 were undertaken in a 10-pt dose response kinase activity assay measuring phospho-peptide product formation based on TR-FRET signal as described in the following paragraph.
(§1) Purified human recombinant kinase full-length wildtype AKT1 was expressed in insect cells and activated in vitro by PDPK1. Ulight™—CREBtide (PerkinElmer, catalog number TRF0107) was used as the peptide substrate. The reaction buffer consisted of 50 mM HEPES pH 7.5, 10 mM MgCl2, 0.01% Triton X-100, 0.01% BSA, 2 mM DTT, 0.6 nM AKT1, 50 nM Ulight™-CREBtide and either 50 μM ATP or 2 mM ATP. The compound solution was prepared as 10 mM DMSO stock. […] Final DMSO concentration in the assay was 1%. […] The reaction was stopped after 60 min of incubation at RT by the addition of 10 μL of Detection Mix (PerkinElmer, #CR97-100) consisting of Europium-anti-phospho-CREB (Ser133) (Perkin Elmer, catalog numberTRF0200). Incubation with the detection mix for a further 60 min allowed binding of antibody to the phospho-Ulight™ CREBtide. The fluorescence emissions at 620 nm and 665 nm after excitation at […] was measured using Envision reader. The ratio of the emissions at 665 nm and at 620 nm provided the measure for the amount of phosphorylated CREBtide product of AKT1 kinase activity.

[2] = molecular target: T2, human recombinant kinase full-length AKT1 E17K (Homo sapiens, UniProt P31749, E17K); assay: AKT1 E17K kinase assay (TR-FRET, Lance); assay type: biochemical; conditions: 0.6 nM AKT1 E17K, 50 nM Ulight-CREBtide, either 50 μM ATP or 2 mM ATP (not specified which), 60 min at RT
T2 construct: Purified human recombinant kinase full-length AKT1 E17K was expressed in insect cells; made in house; host or cells: insect cells
T2 sequence (P31749 whole entry E17K): as the sequence (P31749 whole entry) above, with E17K counted along it
Experimental: AKT1 E17K kinase assay: Inhibitory effects of compounds on AKT1 E17K were undertaken in a 10-pt dose response kinase activity assay measuring phospho-peptide product formation based on TR-FRET signal as described in the following paragraph.
as §1, with “full-length” for “full-length wildtype”, “AKT1 E17K” for “AKT1”, “Ulight™-CREBtide” for “Ulight™—CREBtide”, “AKT1 E17K,” for “AKT1,”, “nM. Ulight™ CREBtide” for “nM Ulight™-CREBtide”

| SMILES | IC50 [1] | IC50 [2] |
| --- | --- | --- |
| C[C@H](c1ccc(C(=O)O)cc1)N1CC(c2ccc(-n3c(-c4cccnc4N)nc4ccc(-c5ccccc5)nc43)cc2)C1 (single isomer, unassigned) [Compound 125] | < 500 nM | 50 to 200 nM |
| C[C@@H](c1ccc(C(=O)O)cc1)N1CC(c2ccc(-n3c(-c4cccnc4N)nc4ccc(-c5ccccc5)nc43)cc2)C1 (single isomer, unassigned) [Compound 126] | < 500 nM | > 500 nM |
| COC(=O)c1ccc([C@@H](C)N2CC(c3ccc(-n4c(-c5cccnc5N)nc5ccc(-c6ccccc6)nc54)cc3)C2)cc1 (single isomer, unassigned) [Compound 157] | < 500 nM | > 500 nM |
| COC(=O)c1ccc([C@H](C)N2CC(c3ccc(-n4c(-c5cccnc5N)nc5ccc(-c6ccccc6)nc54)cc3)C2)cc1 (single isomer, unassigned) [Compound 158] | < 500 nM | > 500 nM |
| Nc1ncccc1-c1nc2ccc(-c3ccccc3)nc2n1-c1ccc(CNC(=O)c2cccc(S(=O)(=O)O)c2F)cc1 [Compound 9, 3-((4-(2-(2-aminopyridin-3-yl)-5-phenyl-3H-imidazo[4,5-b]pyridin-3-yl)benzyl)carbamoyl)-2-fluorobenzenesulfonic acid] | < 500 nM | 200 to 500 nM |
| Nc1ncccc1-c1nc2ccc(-c3ccccc3)nc2n1-c1ccc(CNC(=O)c2cc(F)cc(C(=O)O)c2)cc1 [Compound 21, 3-((4-(2-(2-aminopyridin-3-yl)-5-phenyl-3H-imidazo[4,5-b]pyridin-3-yl)benzyl)carbamoyl)-5-fluorobenzoic acid] | < 500 nM | < 50 nM |
| Nc1ncccc1-c1nc2ccc(-c3ccccc3)nc2n1-c1ccc(CNC(=O)c2cc(C(=O)O)ccc2F)cc1 [Compound 23, 3-((4-(2-(2-aminopyridin-3-yl)-5-phenyl-3H-imidazo[4,5-b]pyridin-3-yl)benzyl)carbamoyl)-4-fluorobenzoic acid] | < 500 nM | < 50 nM |
| Nc1ncccc1-c1nc2ccc(-c3ccccc3)nc2n1-c1ccc(CNC(=O)c2ccc(CC(=O)O)cc2)cc1 [Compound 30, 2-(4-((4-(2-(2-aminopyridin-3-yl)-5-phenyl-3H-imidazo[4,5-b]pyridin-3-yl)benzyl)carbamoyl)phenyl)acetic acid] | < 500 nM | 50 to 200 nM |
| Nc1ncccc1-c1nc2ccc(-c3ccccc3)nc2n1-c1ccc(CNC(=O)c2cccc(CC(=O)O)c2)cc1 [Compound 32, 2-(3-((4-(2-(2-aminopyridin-3-yl)-5-phenyl-3H-imidazo[4,5-b]pyridin-3-yl)benzyl)carbamoyl)phenyl)acetic acid] | < 500 nM | 50 to 200 nM |
| COC(=O)Cc1cccc(C(=O)NCc2ccc(-n3c(-c4cccnc4N)nc4ccc(-c5ccccc5)nc43)cc2)c1F [Compound 33, methyl 2-(3-((4-(2-(2-aminopyridin-3-yl)-5-phenyl-3H-imidazo[4,5-b]pyridin-3-yl)benzyl)carbamoyl)-2-fluorophenyl)acetate] | < 500 nM | > 500 nM |
| Nc1ncccc1-c1nc2ccc(-c3ccccc3)nc2n1-c1ccc(CNC(=O)c2cccc(CC(=O)O)c2F)cc1 [Compound 34, 2-(3-((4-(2-(2-aminopyridin-3-yl)-5-phenyl-3H-imidazo[4,5-b]pyridin-3-yl)benzyl)carbamoyl)-2-fluorophenyl)acetic acid] | < 500 nM | 200 to 500 nM |
| CC(C(=O)O)c1ccc(C(=O)NCc2ccc(-n3c(-c4cccnc4N)nc4ccc(-c5ccccc5)nc43)cc2)cc1 (centres unmarked) [Compound 35, 2-(4-((4-(2-(2-aminopyridin-3-yl)-5-phenyl-3H-imidazo[4,5-b]pyridin-3-yl)benzyl)carbamoyl)phenyl) propanoic acid] | < 500 nM | < 50 nM |
| CC(C(=O)O)c1cccc(C(=O)NCc2ccc(-n3c(-c4cccnc4N)nc4ccc(-c5ccccc5)nc43)cc2)c1F (centres unmarked) [Compound 37, 2-(3-((4-(2-(2-aminopyridin-3-yl)-5-phenyl-3H-imidazo[4,5-b]pyridin-3-yl)benzyl)carbamoyl)-2-fluorophenyl) propanoic acid] | < 500 nM | 200 to 500 nM |
